Measured values published in PubChem BioAssay AID248 (DTP/NCI, 2004).
Inconclusive results and toxic doses are left out.

Test system: L1210 leukemia ip in BDF1 mice, survival T/C
Experiment: NCI In Vivo Anticancer Drug Screen. Data for tumor model L1210 Leukemia (intraperitoneal) in B6D2F1 (BDF1) mice
Details: endpoint: mean survival time, higher = longer survival
Method in brief: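 Antitumor effect is assessed in tumor-bearing animals. Survival in the compound arm is compared with a vehicle-dosed control arm and expressed as their quotient.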

[1] = dose: 100.0 mg/kg/injection, schedule: Q01DX001 (ip), vehicle: saline
[2] = dose: 100.0 mg/kg/injection, schedule: Q01DX009 (ip), vehicle: saline
[3] = dose: 100.0 mg/kg/injection, schedule: Q04DX003 (ip), vehicle: saline
[4] = dose: 200.0 mg/kg/injection, schedule: Q01DX001 (ip), vehicle: saline
[5] = dose: 200.0 mg/kg/injection, schedule: Q04DX003 (ip), vehicle: saline
[6] = dose: 400.0 mg/kg/injection, schedule: Q01DX001 (ip), vehicle: saline
[7] = dose: 400.0 mg/kg/injection, schedule: Q04DX003 (ip), vehicle: saline
[8] = dose: 50.0 mg/kg/injection, schedule: Q01DX001 (ip), vehicle: saline
[9] = dose: 100.0 mg/kg/injection, schedule: Q04DX003 (ip), vehicle: Klucel (hydroxypropylcellulose) (HPC)
[10] = dose: 200.0 mg/kg/injection, schedule: Q04DX003 (ip), vehicle: Klucel (hydroxypropylcellulose) (HPC)
[11] = dose: 400.0 mg/kg/injection, schedule: Q04DX003 (ip), vehicle: Klucel (hydroxypropylcellulose) (HPC)
[12] = dose: 50.0 mg/kg/injection, schedule: Q01DX009 (ip), vehicle: saline with Tween-80
[13] = dose: 100.0 mg/kg/injection, schedule: Q04DX003 (ip), vehicle: saline with Tween-80
[14] = dose: 200.0 mg/kg/injection, schedule: Q01DX009 (ip), vehicle: saline with Tween-80
[15] = dose: 200.0 mg/kg/injection, schedule: Q04DX003 (ip), vehicle: saline with Tween-80
[16] = dose: 25.0 mg/kg/injection, schedule: Q01DX009 (ip), vehicle: saline
[17] = dose: 50.0 mg/kg/injection, schedule: Q01DX009 (ip), vehicle: saline
[18] = dose: 50.0 mg/kg/injection, schedule: Q04DX003 (ip), vehicle: saline
[19] = dose: 75.0 mg/kg/injection, schedule: Q01DX009 (ip), vehicle: saline
[20] = dose: 100.0 mg/kg/injection, schedule: Q01DX009 (ip), vehicle: saline with Tween-80
[21] = dose: 400.0 mg/kg/injection, schedule: Q01DX009 (ip), vehicle: saline with Tween-80

## Nc1ncc(-c2ccc(Br)cc2)s1
dose: 12.5 mg/kg/injection, schedule: Q01DX005 (ip), vehicle: Klucel (hydroxypropylcellulose) (HPC)
  T/C: 100 % of control
dose: 12.5 mg/kg/injection, schedule: Q01DX009 (ip), vehicle: Klucel (hydroxypropylcellulose) (HPC)
  T/C: 105 % of control
dose: 25.0 mg/kg/injection, schedule: Q01DX005 (ip), vehicle: Klucel (hydroxypropylcellulose) (HPC)
  T/C: 107 % of control
dose: 25.0 mg/kg/injection, schedule: Q01DX009 (ip), vehicle: Klucel (hydroxypropylcellulose) (HPC)
  T/C: 97 % of control
dose: 50.0 mg/kg/injection, schedule: Q01DX005 (ip), vehicle: Klucel (hydroxypropylcellulose) (HPC)
  T/C: 91 % of control
dose: 50.0 mg/kg/injection, schedule: Q01DX009 (ip), vehicle: Klucel (hydroxypropylcellulose) (HPC)
  T/C: 97 % of control
dose: 75.0 mg/kg/injection, schedule: Q01DX009 (ip), vehicle: Klucel (hydroxypropylcellulose) (HPC)
  T/C: 97 % of control
dose: 100.0 mg/kg/injection, schedule: Q04DX002 (ip), vehicle: Klucel (hydroxypropylcellulose) (HPC)
  T/C: 102 % of control
dose: 115.0 mg/kg/injection, schedule: Q01DX009 (ip), vehicle: Klucel (hydroxypropylcellulose) (HPC)
  T/C: 92 % of control
dose: 170.0 mg/kg/injection, schedule: Q01DX009 (ip), vehicle: Klucel (hydroxypropylcellulose) (HPC)
  T/C: 116 % of control
dose: 200.0 mg/kg/injection, schedule: Q04DX002 (ip), vehicle: Klucel (hydroxypropylcellulose) (HPC)
  T/C: 102 % of control
dose: 400.0 mg/kg/injection, schedule: Q04DX002 (ip), vehicle: Klucel (hydroxypropylcellulose) (HPC)
  T/C: 88 % of control

## OC(c1ccccc1)(c1ccccc1)C1CCCCC1=C(c1ccccc1)c1ccccc1 (stereo not drawn)
[1]
  T/C: 88 % of control
[2]
  T/C: 86 % of control
[3]
  T/C: 96 % of control
[4]
  T/C: 93 % of control
[5]
  T/C: 94 % of control
[6]
  T/C: 89 % of control
dose: 400.0 mg/kg/injection, schedule: Q01DX009 (ip), vehicle: saline
  T/C: 86 % of control
[7]
  T/C: 96 % of control

## CC(Cl)CCN1CCCCC1 (stereo not drawn)
[8]
  T/C: 104 % of control

## Nc1ncn(C(=S)Nc2ccccc2)n1
[8]
  T/C: 102 % of control
[1]
  T/C: 98 % of control
[4]
  T/C: 98 % of control
[6]
  T/C: 98 % of control

## Cc1ccc(C)c(OCC(=O)O)c1
[9]
  T/C: 97 % of control
[10]
  T/C: 101 % of control
[11]
  T/C: 101 % of control

## CCCN(C)N=Nc1ccccc1C(N)=O
dose: 44.0 mg/kg/injection, schedule: Q01DX009 (ip), vehicle: saline with Tween-80
  T/C: 108 % of control
[12]
  T/C: 113 % of control
dose: 50.0 mg/kg/injection, schedule: Q04DX003 (ip), vehicle: saline with Tween-80
  T/C: 110 % of control
dose: 66.0 mg/kg/injection, schedule: Q01DX009 (ip), vehicle: saline with Tween-80
  T/C: 108 % of control
dose: 100.0 mg/kg/injection, schedule: Q01DX001 (ip), vehicle: other
  T/C: 109 % of control
[13]
  T/C: 111 % of control
dose: 150.0 mg/kg/injection, schedule: Q01DX009 (ip), vehicle: saline with Tween-80
  T/C: 153 % of control
dose: 200.0 mg/kg/injection, schedule: Q01DX001 (ip), vehicle: other
  T/C: 113 % of control
[14]
  T/C: 120 % of control
[15]
  T/C: 118 % of control

## O=C1Nc2nc(=O)nc3[nH]c(=O)nc(n23)N1
[16]
  T/C: 106 % of control
[17]
  T/C: 98 % of control
[18]
  T/C: 110 % of control
[2]
  T/C: 98 % of control
[3]
  T/C: 103 % of control

## O=C1C(=O)c2ccccc2C(O)=C1Sc1ccc(Cl)cc1
dose: 75.0 mg/kg/injection, schedule: Q01DX001 (ip), vehicle: carboxymethylcellulose (CMC)
  T/C: 103 % of control
dose: 150.0 mg/kg/injection, schedule: Q01DX001 (ip), vehicle: carboxymethylcellulose (CMC)
  T/C: 98 % of control
dose: 300.0 mg/kg/injection, schedule: Q01DX001 (ip), vehicle: carboxymethylcellulose (CMC)
  T/C: 98 % of control

## CCN(C(=O)Nc1ccc(Cl)cc1)c1ccccc1C
[13]
  T/C: 91 % of control
[15]
  T/C: 93 % of control

## CCCCNC(C)(C)CS
dose: 6.25 mg/kg/injection, schedule: Q01DX009 (ip), vehicle: saline
  T/C: 105 % of control
dose: 12.5 mg/kg/injection, schedule: Q01DX009 (ip), vehicle: saline
  T/C: 94 % of control
dose: 12.5 mg/kg/injection, schedule: Q04DX003 (ip), vehicle: saline
  T/C: 100 % of control
[16]
  T/C: 96 % of control
dose: 25.0 mg/kg/injection, schedule: Q04DX003 (ip), vehicle: saline
  T/C: 94 % of control
[17]
  T/C: 102 % of control
[18]
  T/C: 102 % of control
[19]
  T/C: 105 % of control

## NC1=NC(c2ccccc2)C2=C(N1)C(=O)N(c1ccc(Br)cc1)C2 (stereo not drawn)
dose: 18.75 mg/kg/injection, schedule: Q01DX009 (ip), vehicle: saline
  T/C: 88 % of control
dose: 37.5 mg/kg/injection, schedule: Q01DX009 (ip), vehicle: saline
  T/C: 86 % of control
dose: 75.0 mg/kg/injection, schedule: Q01DX001 (ip), vehicle: saline
  T/C: 93 % of control
[19]
  T/C: 91 % of control
dose: 150.0 mg/kg/injection, schedule: Q01DX001 (ip), vehicle: saline
  T/C: 90 % of control
dose: 300.0 mg/kg/injection, schedule: Q01DX001 (ip), vehicle: saline
  T/C: 95 % of control

## CO/N=C(/c1ccccc1)c1cccc[n+]1C
dose: 18.8 mg/kg/injection, schedule: Q04DX003 (ip), vehicle: saline
  T/C: 100 % of control
dose: 37.5 mg/kg/injection, schedule: Q04DX003 (ip), vehicle: saline
  T/C: 103 % of control

## COC(=O)C1=C(C(=O)OC)C2C=CC1C1(C)C(=O)N(C)C21C (stereo not drawn)
dose: 75.0 mg/kg/injection, schedule: Q04DX002 (ip), vehicle: Klucel (hydroxypropylcellulose) (HPC)
  T/C: 90 % of control
dose: 300.0 mg/kg/injection, schedule: Q04DX002 (ip), vehicle: Klucel (hydroxypropylcellulose) (HPC)
  T/C: 86 % of control

## CN(C)c1cc(Br)c(C=O)cc1[N+](=O)[O-]
dose: 100.0 mg/kg/injection, schedule: Q01DX009 (ip), vehicle: Klucel (hydroxypropylcellulose) (HPC)
  T/C: 94 % of control
[9]
  T/C: 102 % of control
dose: 200.0 mg/kg/injection, schedule: Q01DX009 (ip), vehicle: Klucel (hydroxypropylcellulose) (HPC)
  T/C: 103 % of control
[10]
  T/C: 93 % of control
dose: 400.0 mg/kg/injection, schedule: Q01DX009 (ip), vehicle: Klucel (hydroxypropylcellulose) (HPC)
  T/C: 92 % of control
[11]
  T/C: 98 % of control

## Cc1cncc(=O)[nH]1
dose: 100.0 mg/kg/injection, schedule: Q01DX001 (ip), vehicle: saline with Tween-80
  T/C: 98 % of control
[20]
  T/C: 96 % of control
[13]
  T/C: 104 % of control
dose: 200.0 mg/kg/injection, schedule: Q01DX001 (ip), vehicle: saline with Tween-80
  T/C: 98 % of control
[14]
  T/C: 100 % of control
[15]
  T/C: 111 % of control
dose: 400.0 mg/kg/injection, schedule: Q01DX001 (ip), vehicle: saline with Tween-80
  T/C: 102 % of control
[21]
  T/C: 91 % of control
dose: 400.0 mg/kg/injection, schedule: Q04DX003 (ip), vehicle: saline with Tween-80
  T/C: 98 % of control

## CCC[N+](CC)(CC)CCOC(=O)C1C2CC3OC(=O)C1C3C2 (stereo not drawn)
[3]
  T/C: 101 % of control

## CC(C)(O)C(C)(O)c1ccc(Cl)cc1 (stereo not drawn)
dose: 25.0 mg/kg/injection, schedule: Q01DX009 (ip), vehicle: saline with Tween-80
  T/C: 93 % of control
dose: 25.0 mg/kg/injection, schedule: Q04DX003 (ip), vehicle: Klucel (hydroxypropylcellulose) (HPC)
  T/C: 101 % of control
[12]
  T/C: 102 % of control
dose: 50.0 mg/kg/injection, schedule: Q04DX003 (ip), vehicle: Klucel (hydroxypropylcellulose) (HPC)
  T/C: 101 % of control
[20]
  T/C: 98 % of control
[9]
  T/C: 101 % of control
[14]
  T/C: 104 % of control
[10]
  T/C: 106 % of control
[21]
  T/C: 94 % of control
[11]
  T/C: 95 % of control

## CNS(C)(=O)=O
[1]
  T/C: 108 % of control
[3]
  T/C: 101 % of control
[4]
  T/C: 106 % of control
[5]
  T/C: 104 % of control
[6]
  T/C: 95 % of control
[7]
  T/C: 106 % of control
